How the values were obtained:
[1] = Plasma concentration in Wistar rat plasma at 5 mg/kg, po after 8 hrs; format: ADME, organism-based; parameters: dose 5 mg/kg, route oral
[2] = Plasma concentration in Wistar rat plasma at 5 mg/kg, po after 2 hrs; format: ADME, organism-based; parameters: dose 5 mg/kg, route oral
[3] = Plasma concentration in Wistar rat plasma at 5 mg/kg, po after 4 hrs; format: ADME, organism-based; parameters: dose 5 mg/kg, route oral
Cytochrome P450 2C19 = Cytochrome P450 2C19 (Homo sapiens, UniProt P33261); test: Inhibition of human recombinant CYP2C19 expressed in insect microsomes; format: ADME, Microsome
Cytochrome P450 2C19, sequence (P33261 whole entry): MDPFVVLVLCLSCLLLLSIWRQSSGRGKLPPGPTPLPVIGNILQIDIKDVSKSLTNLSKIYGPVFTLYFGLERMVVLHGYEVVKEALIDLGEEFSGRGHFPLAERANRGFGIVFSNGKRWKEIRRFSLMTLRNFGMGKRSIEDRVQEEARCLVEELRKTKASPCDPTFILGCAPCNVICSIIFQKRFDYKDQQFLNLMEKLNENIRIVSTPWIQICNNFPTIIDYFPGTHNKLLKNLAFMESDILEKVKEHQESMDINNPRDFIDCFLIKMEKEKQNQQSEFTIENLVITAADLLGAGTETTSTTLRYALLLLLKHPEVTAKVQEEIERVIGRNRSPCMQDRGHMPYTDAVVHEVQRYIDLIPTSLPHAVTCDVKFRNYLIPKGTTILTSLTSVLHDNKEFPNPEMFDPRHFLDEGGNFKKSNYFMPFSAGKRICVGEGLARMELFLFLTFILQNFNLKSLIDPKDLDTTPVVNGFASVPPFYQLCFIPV

[4] = biological target: T1, Cytochrome P450 11B2, mitochondrial (Homo sapiens, UniProt P19099)
T1 sequence (P19099 whole entry): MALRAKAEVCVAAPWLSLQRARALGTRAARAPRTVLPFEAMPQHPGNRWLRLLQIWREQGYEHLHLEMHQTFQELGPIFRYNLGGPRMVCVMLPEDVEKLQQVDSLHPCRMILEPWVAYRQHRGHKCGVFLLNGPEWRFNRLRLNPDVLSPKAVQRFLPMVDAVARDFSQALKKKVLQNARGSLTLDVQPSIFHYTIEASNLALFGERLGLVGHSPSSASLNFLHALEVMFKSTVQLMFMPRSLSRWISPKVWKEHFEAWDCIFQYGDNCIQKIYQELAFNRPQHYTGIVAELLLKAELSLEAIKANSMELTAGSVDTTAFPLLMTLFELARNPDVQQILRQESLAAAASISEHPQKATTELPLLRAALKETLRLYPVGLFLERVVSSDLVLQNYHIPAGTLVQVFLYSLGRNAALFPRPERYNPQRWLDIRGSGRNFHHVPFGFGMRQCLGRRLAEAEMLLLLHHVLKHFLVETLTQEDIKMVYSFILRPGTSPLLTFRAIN

Cytochrome P450 2B6 = biological target: T2, Cytochrome P450 2B6 (Homo sapiens, UniProt P20813); test: Inhibition of human recombinant CYP2B6 expressed in insect microsomes; format: ADME, Microsome
T2 sequence (P20813 whole entry): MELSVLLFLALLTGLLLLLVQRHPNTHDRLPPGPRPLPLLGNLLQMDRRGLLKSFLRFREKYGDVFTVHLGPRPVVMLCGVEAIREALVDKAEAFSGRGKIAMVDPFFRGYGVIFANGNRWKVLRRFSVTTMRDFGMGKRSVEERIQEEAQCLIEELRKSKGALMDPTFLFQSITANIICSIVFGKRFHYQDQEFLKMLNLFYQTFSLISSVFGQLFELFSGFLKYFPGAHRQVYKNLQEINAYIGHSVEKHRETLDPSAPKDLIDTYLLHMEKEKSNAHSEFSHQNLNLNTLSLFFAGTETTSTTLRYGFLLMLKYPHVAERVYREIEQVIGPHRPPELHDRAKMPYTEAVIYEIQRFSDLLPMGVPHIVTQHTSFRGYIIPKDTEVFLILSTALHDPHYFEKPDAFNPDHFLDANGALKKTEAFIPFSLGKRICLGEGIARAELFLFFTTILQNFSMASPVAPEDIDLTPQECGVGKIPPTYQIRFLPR

CYP17 = biological target: T3, CYP17 (Homo sapiens, UniProt P05093); test: Inhibition of human recombinant CYP17 expressed in Escherichia coli at 2 uM
T3 sequence (P05093 whole entry): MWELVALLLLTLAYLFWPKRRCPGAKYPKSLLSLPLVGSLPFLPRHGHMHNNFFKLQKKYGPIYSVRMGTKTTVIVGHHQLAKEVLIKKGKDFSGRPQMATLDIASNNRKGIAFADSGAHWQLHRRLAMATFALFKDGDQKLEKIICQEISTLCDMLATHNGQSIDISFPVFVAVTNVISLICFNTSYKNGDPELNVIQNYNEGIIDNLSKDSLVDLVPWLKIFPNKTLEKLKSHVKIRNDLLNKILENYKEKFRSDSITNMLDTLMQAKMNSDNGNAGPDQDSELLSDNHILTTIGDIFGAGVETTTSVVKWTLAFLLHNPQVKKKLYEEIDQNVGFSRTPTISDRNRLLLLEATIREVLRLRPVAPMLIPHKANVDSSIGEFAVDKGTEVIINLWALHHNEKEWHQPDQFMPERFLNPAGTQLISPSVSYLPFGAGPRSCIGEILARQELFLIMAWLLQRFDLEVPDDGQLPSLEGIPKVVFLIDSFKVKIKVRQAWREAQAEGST

[5] = Cmax in Wistar rat at 5 mg/kg, po; format: ADME, organism-based; parameters: dose 5 mg/kg, route oral; conditions: in vivo
Cytochrome P450 1A2 = biological target: T4, Cytochrome P450 1A2 (Homo sapiens, UniProt P05177)
T4 sequence (P05177 whole entry): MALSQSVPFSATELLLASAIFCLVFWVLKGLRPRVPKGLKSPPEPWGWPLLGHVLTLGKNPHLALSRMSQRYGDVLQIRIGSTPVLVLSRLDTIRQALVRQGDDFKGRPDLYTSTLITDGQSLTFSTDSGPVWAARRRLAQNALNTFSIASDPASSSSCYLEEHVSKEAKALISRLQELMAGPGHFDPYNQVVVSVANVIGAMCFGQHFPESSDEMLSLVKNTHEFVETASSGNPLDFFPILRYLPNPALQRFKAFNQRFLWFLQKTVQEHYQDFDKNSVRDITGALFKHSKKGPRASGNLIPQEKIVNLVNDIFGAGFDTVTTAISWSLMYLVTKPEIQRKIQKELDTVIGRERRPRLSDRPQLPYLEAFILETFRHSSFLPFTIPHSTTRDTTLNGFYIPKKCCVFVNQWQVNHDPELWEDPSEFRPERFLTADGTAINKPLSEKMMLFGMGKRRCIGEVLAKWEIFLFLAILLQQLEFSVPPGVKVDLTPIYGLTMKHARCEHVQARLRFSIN

Cytochrome P450 2C9 = Cytochrome P450 2C9 (Homo sapiens, UniProt P11712); test: Inhibition of human recombinant CYP2C9 expressed in insect microsomes; format: ADME, Microsome
Cytochrome P450 2C9, sequence (P11712 whole entry): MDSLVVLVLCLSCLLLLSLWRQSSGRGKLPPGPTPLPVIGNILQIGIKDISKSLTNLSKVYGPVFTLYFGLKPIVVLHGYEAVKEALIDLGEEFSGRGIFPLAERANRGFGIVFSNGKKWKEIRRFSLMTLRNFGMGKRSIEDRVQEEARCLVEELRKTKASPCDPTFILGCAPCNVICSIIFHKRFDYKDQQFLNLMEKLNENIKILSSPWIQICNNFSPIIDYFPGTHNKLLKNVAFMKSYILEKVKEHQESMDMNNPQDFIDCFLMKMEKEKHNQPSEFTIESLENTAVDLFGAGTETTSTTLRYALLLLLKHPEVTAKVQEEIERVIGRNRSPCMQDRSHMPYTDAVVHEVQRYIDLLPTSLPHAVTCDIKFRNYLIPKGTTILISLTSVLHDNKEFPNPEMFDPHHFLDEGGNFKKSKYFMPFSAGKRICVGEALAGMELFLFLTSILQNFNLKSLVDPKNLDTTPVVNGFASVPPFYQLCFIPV

[6] = biological target: T5, Cytochrome P450 11B1, mitochondrial (Homo sapiens, UniProt P15538)
T5 sequence (P15538 whole entry): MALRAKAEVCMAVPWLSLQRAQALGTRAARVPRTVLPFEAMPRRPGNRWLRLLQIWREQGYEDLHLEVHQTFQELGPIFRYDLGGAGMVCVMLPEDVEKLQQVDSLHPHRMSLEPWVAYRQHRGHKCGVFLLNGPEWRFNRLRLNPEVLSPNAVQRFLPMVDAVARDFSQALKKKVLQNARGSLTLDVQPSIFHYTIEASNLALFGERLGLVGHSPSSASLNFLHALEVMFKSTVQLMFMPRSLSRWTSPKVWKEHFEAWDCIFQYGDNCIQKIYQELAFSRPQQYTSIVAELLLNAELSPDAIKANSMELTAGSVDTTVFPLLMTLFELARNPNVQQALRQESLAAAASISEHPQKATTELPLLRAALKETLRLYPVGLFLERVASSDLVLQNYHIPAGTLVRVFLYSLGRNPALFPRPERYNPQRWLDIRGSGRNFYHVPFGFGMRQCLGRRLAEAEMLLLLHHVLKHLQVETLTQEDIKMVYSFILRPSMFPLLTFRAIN

[7] = Terminal half life in Wistar rat at 5 mg/kg, po; format: ADME, organism-based; parameters: dose 5 mg/kg, route oral; conditions: in vivo

For COc1ccc2cc(-c3cncc4ccccc34)ccc2c1, the concentration at 8 h [1] was 34.6 ng/mL, the concentration at 2 h [2] was 55.8 ng/mL and the concentration at 4 h [3] was 76.3 ng/mL. The IC50 (Cytochrome P450 2C19) was 3540 nM, the IC50 [4] was 0.6 nM and the IC50 (Cytochrome P450 2B6) was 16500 nM. For the same compound, the inhibition at 2 µM (CYP17) was 39%, the Cmax [5] was 81 ng/mL and the IC50 (Cytochrome P450 1A2) was 1620 nM. The IC50 (Cytochrome P450 2C9) was 1270 nM, the IC50 [6] was 67 nM and the half-life [7] was 3.2 h.

From ChEMBL document CHEMBL1156596, “Overcoming undesirable CYP1A2 inhibition of pyridylnaphthalene-type aldosterone synthase inhibitors: influence of heteroaryl derivatization on potency and selectivity” (J Med Chem, 2008)
